{"source": "patent US11752188B2", "about": "“Compositions and methods for nutritional supplements” (DailyColors Health Inc., priority 2020, dated 2023)", "key": {"[1]": {"target": "T1, recombinant human CD73 (Homo sapiens, UniProt P21589)", "T1 construct": "purchased BPS Bioscience 71184 (enzyme); kit #72055", "T1 sequence (P21589 27-549)": "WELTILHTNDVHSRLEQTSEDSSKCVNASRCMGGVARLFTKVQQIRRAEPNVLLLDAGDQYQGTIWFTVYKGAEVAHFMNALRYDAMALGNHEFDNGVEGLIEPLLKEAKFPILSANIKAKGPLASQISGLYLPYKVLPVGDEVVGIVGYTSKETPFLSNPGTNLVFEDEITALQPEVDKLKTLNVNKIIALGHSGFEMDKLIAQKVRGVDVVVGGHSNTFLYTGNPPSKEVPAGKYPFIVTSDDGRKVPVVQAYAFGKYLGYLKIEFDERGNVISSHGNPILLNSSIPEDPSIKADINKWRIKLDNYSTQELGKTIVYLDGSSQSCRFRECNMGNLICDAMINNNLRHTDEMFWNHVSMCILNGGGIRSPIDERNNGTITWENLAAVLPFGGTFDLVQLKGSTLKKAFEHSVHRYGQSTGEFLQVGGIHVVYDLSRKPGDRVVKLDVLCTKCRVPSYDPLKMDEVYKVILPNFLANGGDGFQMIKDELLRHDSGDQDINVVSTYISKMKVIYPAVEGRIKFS", "experiment": "CD73 in vitro enzymatic assay (colorimetric 630 nm)", "assay_type": "biochemical", "excerpt": "Here, D5 is the Yellow Blend, D9 is the Purple Blend, D21 is the Green Blend, D13 is the Red Blend, and D31 is CBD. As before, the red blend included Apple Extract, Pomegranate Extract, Tomato Powder, Beet; the green blend included Olive Extract, Rosemary Extract, Green Coffee Bean Extract, Kale; the orange/yellow blend included Onion Extract, Ginger Extract, Grapefruit Extract, Carrot; and the purple/blue blend included Grape, Blueberry Extract, Currant, Elderberry.\nAssay Conditions: In general, all assays points were done by following the CD39 and CD73 Inhibitor Screening Assay Kit protocol (BPS Bioscience, #79278 and 72055, respectively). The CD73 enzymatic reactions were conducted in duplicate at room temperature for 30 minutes in a 50 μl mixture containing assay buffer, […], CD73 enzymes, and the test compound. Test compounds were preincubated with the enzyme for 30 minutes. Reactions were started by addition of the substrate. The 50 μl reactions were carried out in a 96-well transparent plate. After enzymatic reactions, 100 μl of Colorimetric Detection Reagent was added to the reaction mix. After a 15 minutes incubation, absorbance was measured using a Tecan plate reader at 630 nm.\nData Analysis: Enzyme activity assays were performed in duplicates at each concentration. The Absorbance intensity data were analyzed and compared. In the absence of the compound, the intensity in each data set was defined as 100% (Ce) activity. In the absence of enzyme, the intensity in each data set was defined as 0% (C0) activity."}, "[2]": {"target": "T2, recombinant human CD39 (Homo sapiens, UniProt P49961)", "T2 construct": "purchased BPS Bioscience 71284 (enzyme); kit #79278", "T2 sequence (P49961 1-510)": "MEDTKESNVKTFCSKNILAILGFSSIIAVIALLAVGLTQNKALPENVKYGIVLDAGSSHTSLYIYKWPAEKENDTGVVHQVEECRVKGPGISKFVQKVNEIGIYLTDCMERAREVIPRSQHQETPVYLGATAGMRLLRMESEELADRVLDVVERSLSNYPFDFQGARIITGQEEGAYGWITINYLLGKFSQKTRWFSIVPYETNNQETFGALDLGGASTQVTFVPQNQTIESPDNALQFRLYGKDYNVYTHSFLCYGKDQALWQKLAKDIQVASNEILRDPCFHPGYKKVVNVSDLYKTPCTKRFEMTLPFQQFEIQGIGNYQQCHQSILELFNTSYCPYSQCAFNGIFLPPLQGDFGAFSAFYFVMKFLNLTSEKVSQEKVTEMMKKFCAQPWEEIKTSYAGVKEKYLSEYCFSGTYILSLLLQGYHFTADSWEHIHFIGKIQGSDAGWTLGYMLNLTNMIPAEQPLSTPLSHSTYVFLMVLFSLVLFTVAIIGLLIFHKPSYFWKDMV", "experiment": "CD39 in vitro enzymatic assay (ATP, colorimetric 630 nm)", "assay_type": "biochemical", "conditions": "TABLE 81", "method": "The CD39 enzymatic reactions were conducted in duplicate at room temperature for 30 minutes in a 50 μl mixture containing assay buffer, ATP, CD39 enzymes, and the test compound. Test compounds were preincubated with the enzyme for 30 minutes. Reactions were started by addition of the substrate. The 50 μl reactions were carried out in a 96-well transparent plate. After enzymatic reactions, 100 μl of Colorimetric Detection Reagent was added to the reaction mix. After a 15 minutes incubation, absorbance was measured using a Tecan plate reader at 630 nm."}}, "data": [{"smiles": "Nc1ncnc2c1ncn2[C@@H]1O[C@H](COP(=O)(O)CP(=O)(O)O)[C@@H](O)[C@H]1O", "note": "[AMPCP]", "values": [{"measurement": "Activity (%) Repeat 1", "setting": "[1]; 0.1 μM, TABLE 93", "result": 81, "unit": "%"}, {"measurement": "Activity (%) Repeat 2", "setting": "[1]; 0.1 μM, TABLE 93", "result": 96, "unit": "%"}, {"measurement": "Inhibition (%)", "setting": "[1]; 0.1 μM, TABLE 93", "result": 12, "unit": "%"}, {"measurement": "Net Signal (Absorbance) Repeat 1", "setting": "[1]; 0.1 μM, TABLE 93", "result": 0.14}, {"measurement": "Net Signal (Absorbance) Repeat 2", "setting": "[1]; 0.1 μM, TABLE 93", "result": 0.17}, {"measurement": "Activity (%) Rep. 1", "setting": "[1]; 1 μM, TABLE 90", "result": 92, "unit": "%"}, {"measurement": "Activity (%) Rep. 2", "setting": "[1]; 1 μM, TABLE 90", "result": 96, "unit": "%"}, {"measurement": "Inhibition (%)", "setting": "[1]; 1 μM, TABLE 90", "result": 6, "unit": "%"}, {"measurement": "Net absorbance Rep. 1", "setting": "[1]; 1 μM, TABLE 90", "result": 0.368}, {"measurement": "Net absorbance Rep. 2", "setting": "[1]; 1 μM, TABLE 90", "result": 0.383}, {"measurement": "Activity (%) Rep. 1", "setting": "[1]; 1 μM, TABLE 91", "result": 89, "unit": "%"}, {"measurement": "Activity (%) Rep. 2", "setting": "[1]; 1 μM, TABLE 91", "result": 89, "unit": "%"}, {"measurement": "Inhibition (%)", "setting": "[1]; 1 μM, TABLE 91", "result": 11, "unit": "%"}, {"measurement": "Net absorbance Rep. 1", "setting": "[1]; 1 μM, TABLE 91", "result": 0.30}, {"measurement": "Net absorbance Rep. 2", "setting": "[1]; 1 μM, TABLE 91", "result": 0.30}, {"measurement": "Activity (%) Repeat 1", "setting": "[1]; 1 μM, TABLE 93", "result": 53, "unit": "%"}, {"measurement": "Activity (%) Repeat 2", "setting": "[1]; 1 μM, TABLE 93", "result": 64, "unit": "%"}, {"measurement": "Inhibition (%)", "setting": "[1]; 1 μM, TABLE 93", "result": 41, "unit": "%"}, {"measurement": "Net Signal (Absorbance) Repeat 1", "setting": "[1]; 1 μM, TABLE 93", "result": 0.09}, {"measurement": "Net Signal (Absorbance) Repeat 2", "setting": "[1]; 1 μM, TABLE 93", "result": 0.11}, {"measurement": "Activity (%) Rep. 1", "setting": "[1]; 10 μM, TABLE 90", "result": 74, "unit": "%"}, {"measurement": "Activity (%) Rep. 2", "setting": "[1]; 10 μM, TABLE 90", "result": 76, "unit": "%"}, {"measurement": "Inhibition (%)", "setting": "[1]; 10 μM, TABLE 90", "result": 25, "unit": "%"}, {"measurement": "Net absorbance Rep. 1", "setting": "[1]; 10 μM, TABLE 90", "result": 0.298}, {"measurement": "Net absorbance Rep. 2", "setting": "[1]; 10 μM, TABLE 90", "result": 0.306}, {"measurement": "Activity (%) Rep. 1", "setting": "[1]; 10 μM, TABLE 91", "result": 52, "unit": "%"}, {"measurement": "Activity (%) Rep. 2", "setting": "[1]; 10 μM, TABLE 91", "result": 59, "unit": "%"}, {"measurement": "Inhibition (%)", "setting": "[1]; 10 μM, TABLE 91", "result": 45, "unit": "%"}, {"measurement": "Net absorbance Rep. 1", "setting": "[1]; 10 μM, TABLE 91", "result": 0.18}, {"measurement": "Net absorbance Rep. 2", "setting": "[1]; 10 μM, TABLE 91", "result": 0.20}, {"measurement": "Activity (%) Repeat 1", "setting": "[1]; 10 μM, TABLE 93", "result": 20, "unit": "%"}, {"measurement": "Activity (%) Repeat 2", "setting": "[1]; 10 μM, TABLE 93", "result": 28, "unit": "%"}, {"measurement": "Inhibition (%)", "setting": "[1]; 10 μM, TABLE 93", "result": 76, "unit": "%"}, {"measurement": "Net Signal (Absorbance) Repeat 1", "setting": "[1]; 10 μM, TABLE 93", "result": 0.04}, {"measurement": "Net Signal (Absorbance) Repeat 2", "setting": "[1]; 10 μM, TABLE 93", "result": 0.05}, {"measurement": "Activity (%) Rep. 1", "setting": "[1]; 100 μM, TABLE 90", "result": 17, "unit": "%"}, {"measurement": "Activity (%) Rep. 2", "setting": "[1]; 100 μM, TABLE 90", "result": 22, "unit": "%"}, {"measurement": "Inhibition (%)", "setting": "[1]; 100 μM, TABLE 90", "result": 80, "unit": "%"}, {"measurement": "Net absorbance Rep. 1", "setting": "[1]; 100 μM, TABLE 90", "result": 0.071}, {"measurement": "Net absorbance Rep. 2", "setting": "[1]; 100 μM, TABLE 90", "result": 0.089}, {"measurement": "Activity (%) Rep. 1", "setting": "[1]; 100 μM, TABLE 91", "result": 13, "unit": "%"}, {"measurement": "Activity (%) Rep. 2", "setting": "[1]; 100 μM, TABLE 91", "result": 12, "unit": "%"}, {"measurement": "Inhibition (%)", "setting": "[1]; 100 μM, TABLE 91", "result": 88, "unit": "%"}, {"measurement": "Net absorbance Rep. 1", "setting": "[1]; 100 μM, TABLE 91", "result": 0.04}, {"measurement": "Net absorbance Rep. 2", "setting": "[1]; 100 μM, TABLE 91", "result": 0.04}]}, {"smiles": "C=C(C)[C@@H]1CCC(C)=C[C@H]1c1c(O)cc(CCCCC)cc1O", "note": "[D31, CBD]", "values": [{"measurement": "Activity (%) Rep. 1", "setting": "[2]; 0.0004%", "result": 93, "unit": "%"}, {"measurement": "Activity (%) Rep. 2", "setting": "[2]; 0.0004%", "result": 91, "unit": "%"}, {"measurement": "Inhibition (%)", "setting": "[2]; 0.0004%", "result": 8, "unit": "%"}, {"measurement": "Net absorbance Rep. 1", "setting": "[2]; 0.0004%", "result": 0.50}, {"measurement": "Net absorbance Rep. 2", "setting": "[2]; 0.0004%", "result": 0.49}, {"measurement": "Activity (%) Rep. 1", "setting": "[2]; 0.002%", "result": 90, "unit": "%"}, {"measurement": "Activity (%) Rep. 2", "setting": "[2]; 0.002%", "result": 92, "unit": "%"}, {"measurement": "Inhibition (%)", "setting": "[2]; 0.002%", "result": 9, "unit": "%"}, {"measurement": "Net absorbance Rep. 1", "setting": "[2]; 0.002%", "result": 0.48}, {"measurement": "Net absorbance Rep. 2", "setting": "[2]; 0.002%", "result": 0.49}, {"measurement": "Activity (%) Rep. 1", "setting": "[2]; 0.01%", "result": 96, "unit": "%"}, {"measurement": "Activity (%) Rep. 2", "setting": "[2]; 0.01%", "result": 103, "unit": "%"}, {"measurement": "Inhibition (%)", "setting": "[2]; 0.01%", "result": 1, "unit": "%"}, {"measurement": "Net absorbance Rep. 1", "setting": "[2]; 0.01%", "result": 0.52}, {"measurement": "Net absorbance Rep. 2", "setting": "[2]; 0.01%", "result": 0.55}, {"measurement": "Activity (%) Rep. 1", "setting": "[1]; 0.0004%, TABLE 91", "result": 104, "unit": "%"}, {"measurement": "Activity (%) Rep. 2", "setting": "[1]; 0.0004%, TABLE 91", "result": 101, "unit": "%"}, {"measurement": "Inhibition (%)", "setting": "[1]; 0.0004%, TABLE 91", "result": 0, "unit": "%"}, {"measurement": "Net absorbance Rep. 1", "setting": "[1]; 0.0004%, TABLE 91", "result": 0.35}, {"measurement": "Net absorbance Rep. 2", "setting": "[1]; 0.0004%, TABLE 91", "result": 0.34}, {"measurement": "Activity (%) Rep. 1", "setting": "[1]; 0.002%, TABLE 91", "result": 103, "unit": "%"}, {"measurement": "Activity (%) Rep. 2", "setting": "[1]; 0.002%, TABLE 91", "result": 100, "unit": "%"}, {"measurement": "Inhibition (%)", "setting": "[1]; 0.002%, TABLE 91", "result": 0, "unit": "%"}, {"measurement": "Net absorbance Rep. 1", "setting": "[1]; 0.002%, TABLE 91", "result": 0.35}, {"measurement": "Net absorbance Rep. 2", "setting": "[1]; 0.002%, TABLE 91", "result": 0.34}, {"measurement": "Activity (%) Rep. 1", "setting": "[1]; 0.01%, TABLE 91", "result": 106, "unit": "%"}, {"measurement": "Activity (%) Rep. 2", "setting": "[1]; 0.01%, TABLE 91", "result": 98, "unit": "%"}, {"measurement": "Inhibition (%)", "setting": "[1]; 0.01%, TABLE 91", "result": 0, "unit": "%"}, {"measurement": "Net absorbance Rep. 1", "setting": "[1]; 0.01%, TABLE 91", "result": 0.35}, {"measurement": "Net absorbance Rep. 2", "setting": "[1]; 0.01%, TABLE 91", "result": 0.33}]}]}
